Measured values as given in US9296747B1, “Piperidylpyrimidine derivatives as modulators of protein kinase inhibitors and of vascular endothelial growth factor receptor 2” (Allergan, Inc., priority 2014, dated 2016).

Assays:
[1] = target: VEGFR2 (purified cytoplasmic domain KDR protein) (Homo sapiens (Human), UniProt P35968); experiment: VEGFR2 Kinase Assay (biochemical KDR kinase, poly-Glu-Tyr ELISA); details: 2.7 μM ATP, 15 minute incubation at 30° C.
Experimental: VEGFR2 Kinase Assay […] Test compounds were reconstituted in 100% DMSO and added to the reaction to give a final DMSO concentration of 5%. […] Following a 15 minute incubation at 30° C., the reactions were washed 2 mls per well PBS-T. 100 μl of a monoclonal anti-phosphotyrosine antibody-peroxidase conjugate diluted 1:10,000 in PBS-T was added to the wells for 30 minutes. Following a 2 mls per well wash with PBS-Tween-20, 100 μl of 0-Phenylenediamine Dihydrochloride in phosphate-citrate buffer, containing urea hydrogen peroxide, was added to the wells for 7-10 minutes as a colorimetric substrate for the peroxidase. The reaction was terminated by the addition of 100 μl of 2.5N H2SO4 to each well and read using a microplate ELISA reader set at 492 nm. IC50 values for compound inhibition were calculated directly from graphs of optical density (arbitrary units) versus compound concentration following subtraction of blank values.

[2] = target: recombinant human GST-PKR (Homo sapiens (Human), UniProt P19525); experiment: PKR KinaseGlo Assay; format: biochemical; details: 6.6 uM ATP, 10 minutes at room temperature
Sequence of recombinant human GST-PKR (P19525 whole entry): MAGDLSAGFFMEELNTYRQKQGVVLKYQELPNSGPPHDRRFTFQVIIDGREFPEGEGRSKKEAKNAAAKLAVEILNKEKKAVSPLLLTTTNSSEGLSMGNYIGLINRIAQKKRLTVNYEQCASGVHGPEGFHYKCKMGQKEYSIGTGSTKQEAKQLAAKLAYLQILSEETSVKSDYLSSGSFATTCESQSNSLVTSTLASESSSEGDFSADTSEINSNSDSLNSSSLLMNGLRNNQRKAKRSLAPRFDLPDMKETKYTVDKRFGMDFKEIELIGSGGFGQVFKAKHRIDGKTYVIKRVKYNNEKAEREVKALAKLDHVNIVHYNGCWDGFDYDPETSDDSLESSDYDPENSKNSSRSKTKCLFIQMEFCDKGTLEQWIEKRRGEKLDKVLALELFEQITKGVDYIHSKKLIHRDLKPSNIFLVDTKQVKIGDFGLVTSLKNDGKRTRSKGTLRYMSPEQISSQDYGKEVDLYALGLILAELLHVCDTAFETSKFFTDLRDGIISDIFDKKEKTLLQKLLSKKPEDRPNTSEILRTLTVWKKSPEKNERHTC
Experimental: Commercially available recombinant human GST-PKR (SignalChem, Canada; 1.5 uM-2 uM stock) is diluted to 500 nM in assay buffer (20 mM Tris-HCl, pH 7.2, 10 mM KCl, 10 mM MgCl2, 10% glycerol). Preactivated PKR is dispensed to 384/96-well black plates at 3.125/12.5 uls/well using the liquid handler Janus. Appropriate dilutions of inhibitors are added to 384/96-well plate followed by 6.6 uM ATP (final) and incubated for 10 minutes at room temperature. The remaining ATP/well is determined by adding 6.25/25 uls/well Kinase-Glo assay mix (Promega) and luminescence is measured on EnVision luminescence plate reader (integration time, 0.2 sec; Perkin-Elmer, Massachusetts, USA). The % inhibition for the compounds is calculated using ATP only (100% inhibition) and PKR+ATP (0% inhibition). […] values are determined by plotting % activity versus inhibitor concentration. Curves are fitted using Activity base XLfit (IDBS, UK) using the formula— • 4 Parameter Logistic Model fit=(A+((B−A)/(1+(10^((C−x)*D))))) inv=(C−(log(((B−A)/(y−A))−1)/D)) res=(y−fit)

[3] = target: PDGFRβ (purified cytoplasmic domain PDGFR-b protein) (Homo sapiens (Human), UniProt P09619); experiment: PDGFRβ Kinase Assay (biochemical, poly-Glu-Tyr ELISA); details: 36 μM ATP, 60 minute incubation at 30° C.
Sequence of PDGFRβ (purified cytoplasmic domain PDGFR-b protein) (P09619 554-1106): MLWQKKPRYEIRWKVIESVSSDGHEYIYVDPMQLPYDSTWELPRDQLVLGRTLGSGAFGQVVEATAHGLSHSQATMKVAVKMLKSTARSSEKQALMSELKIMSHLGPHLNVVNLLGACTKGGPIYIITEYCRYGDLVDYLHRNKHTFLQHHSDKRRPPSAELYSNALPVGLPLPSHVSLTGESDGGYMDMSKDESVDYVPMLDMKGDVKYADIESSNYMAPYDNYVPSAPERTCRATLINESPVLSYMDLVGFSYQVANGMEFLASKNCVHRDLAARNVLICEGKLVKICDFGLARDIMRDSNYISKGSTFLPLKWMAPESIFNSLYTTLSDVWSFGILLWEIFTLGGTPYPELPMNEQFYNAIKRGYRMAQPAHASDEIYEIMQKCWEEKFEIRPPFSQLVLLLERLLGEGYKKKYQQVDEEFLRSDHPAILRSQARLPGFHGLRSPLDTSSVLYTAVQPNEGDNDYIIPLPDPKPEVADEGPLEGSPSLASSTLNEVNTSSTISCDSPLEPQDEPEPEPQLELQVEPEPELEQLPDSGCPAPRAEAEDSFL
Experimental: Biochemical PDGFRβ kinase assays were performed in 96 well microtiter plates that were coated overnight with 75 μg of poly-Glu-Tyr (4:1) in 10 mM Phosphate Buffered Saline (PBS), pH 7.4. The coated plates were washed with 2 mls per well PBS+0.05% Tween-20 (PBS-T), blocked by incubation with PBS containing 1% BSA, then washed with 2 mls per well PBS-T prior to starting the reaction. Reactions were carried out in 100 μL reaction volumes containing 36 μM ATP in kinase buffer (50 mM Hepes buffer pH 7.4, 20 mM MgCl2, 0.1 mM MnCl2 and 0.2 mM Na3VO4). Test compounds were reconstituted in 100% DMSO and added to the reaction to give a final DMSO concentration of 5%. Reactions were initiated by the addition 20 ul per well of kinase buffer containing 200-300 ng purified cytoplasmic domain PDGFR-b protein (Millipore). Following a 60 minute incubation at 30° C., the reactions were washed 2 mls per well PBS-T. 100 μl of a monoclonal anti-phosphotyrosine antibody-peroxidase conjugate diluted 1:10,000 in PBS-T was added to the wells for 30 minutes. Following a 2 mls per well wash with PBS-Tween-20, 100 μl of 0-Phenylenediamine Dihydrochloride in phosphate-citrate buffer, containing urea hydrogen peroxide, was added to the wells for 7-10 minutes as a colorimetric substrate for the peroxidase. The reaction was terminated by the addition of 100 μl of 2.5N H2SO4 to each well and read using a microplate ELISA reader set at 492 nm. IC50 values for compound inhibition were calculated directly from graphs of optical density (arbitrary units) versus compound concentration following subtraction of blank values.

Sequence of VEGFR2 (purified cytoplasmic domain KDR protein) (P35968 786-1356): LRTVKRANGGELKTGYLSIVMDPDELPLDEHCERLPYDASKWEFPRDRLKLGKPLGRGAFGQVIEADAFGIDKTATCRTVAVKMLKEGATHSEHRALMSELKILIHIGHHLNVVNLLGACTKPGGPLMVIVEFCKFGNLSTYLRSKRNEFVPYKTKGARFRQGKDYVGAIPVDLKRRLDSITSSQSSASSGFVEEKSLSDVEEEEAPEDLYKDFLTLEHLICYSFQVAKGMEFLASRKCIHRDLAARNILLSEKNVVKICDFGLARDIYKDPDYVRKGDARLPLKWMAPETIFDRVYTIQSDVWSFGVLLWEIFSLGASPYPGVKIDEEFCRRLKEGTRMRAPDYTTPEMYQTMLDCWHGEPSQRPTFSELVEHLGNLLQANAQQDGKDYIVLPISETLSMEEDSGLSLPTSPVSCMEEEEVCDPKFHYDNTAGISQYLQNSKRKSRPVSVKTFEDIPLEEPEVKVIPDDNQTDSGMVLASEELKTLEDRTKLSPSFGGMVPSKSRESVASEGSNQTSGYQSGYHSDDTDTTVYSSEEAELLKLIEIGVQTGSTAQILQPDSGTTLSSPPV

Molecule	IC50 [1] [nM]	IC50 [2] [nM]	IC50 [3] [nM]
O=C(Nc1cccnc1)N1CCc2nc(Nc3ccccc3)ncc2C1 [Example 3, 2-anilino-N-pyridin-3-yl-7,8-dihydropyrido[4,3-d]pyrimidine-6(5H)-carboxamide]	> 10000	282	
COc1ccc(Nc2ncc3c(n2)CCN(C(=O)c2cccnc2)C3)cc1 [Example 5, N-(4-methoxyphenyl)-6-(pyridin-3-ylcarbonyl)-5,6,7,8-tetrahydropyrido[4,3-d]pyrimidin-2-amine]	5	> 40000	17
COc1cccc(Nc2ncc3c(n2)CCN(C(=O)c2cccnc2)C3)c1 [Example 6, N-(3-methoxyphenyl)-6-(pyridin-3-ylcarbonyl)-5,6,7,8-tetrahydropyrido[4,3-d]pyrimidin-2-amine]	443	> 40000	
COc1ccccc1Nc1ncc2c(n1)CCN(C(=O)c1cccnc1)C2 [Example 7, N-(2-methoxyphenyl)-6-(pyridin-3-ylcarbonyl)-5,6,7,8-tetrahydropyrido[4,3-d]pyrimidin-2-amine]	10		244
Cn1nccc1Nc1ncc2c(n1)CCN(C(=O)c1cccnc1)C2 [Example 8, N-(1-methyl-1H-pyrazol-5-yl)-6-(pyridin-3-ylcarbonyl)-5,6,7,8-tetrahydropyrido[4,3-d]pyrimidin-2-amine]	16		130
COc1cc(Nc2ncc3c(n2)CCN(C(=O)c2occc2C)C3)cc(OC)c1OC [Example 11, 6-(3-methyl-2-furoyl)-N-(3,4,5-trimethoxyphenyl)-5,6,7,8-tetrahydropyrido[4,3-d]pyrimidin-2-amine]	6		239
COc1cc(Nc2ncc3c(n2)CCN(C(=O)c2cc(C)nn2C)C3)cc(OC)c1OC [Example 12, 6-[(1,3-dimethyl-1H-pyrazol-5-yl)carbonyl]-N-(3,4,5-trimethoxyphenyl)-5,6,7,8-tetrahydropyrido[4,3-d]pyrimidin-2-amine]	5		19
N-phenyl-6-(pyridin-3-ylcarbonyl)-5,6,7,8-tetrahydropyrido[4,3-d]pyrimidin-2-amine [Example 2]	> 100000	89	

Now from value to molecule:

IC50 [1] [nM]	IC50 [2] [nM]	IC50 [3] [nM]	Molecule
8			COc1cc(Nc2ncc3c(n2)CCN(C(=O)c2cccs2)C3)cc(OC)c1OC [Example 13, 6-(2-thienylcarbonyl)-N-(3,4,5-trimethoxyphenyl)-5,6,7,8-tetrahydropyrido[4,3-d]pyrimidin-2-amine]
1850	2820		COc1cc(Nc2ncc3c(n2)CCN(C(=O)c2ccccn2)C3)cc(OC)c1OC [Example 15, 6-(pyridin-2-ylcarbonyl)-N-(3,4,5-trimethoxyphenyl)-5,6,7,8-tetrahydropyrido[4,3-d]pyrimidin-2-amine]
	176		COc1ccc(Nc2ncc3c(n2)CCN(C(=O)c2cccnc2)C3)cc1OC [Example 16, N-(3,4-dimethoxyphenyl)-6-(pyridin-3-ylcarbonyl)-5,6,7,8-tetrahydropyrido[4,3-d]pyrimidin-2-amine]
	130		COc1cc(Nc2ncc3c(n2)CCN(C(=O)c2cccnc2)C3)cc(OC)c1 [Example 17, N-(3,5-dimethoxyphenyl)-6-(pyridin-3-ylcarbonyl)-5,6,7,8-tetrahydropyrido[4,3-d]pyrimidin-2-amine]
